Test results published in patent publication US8410161B2, “Thioxanthone ring system derivatives” (National Defense Medical Center, priority 2010, dated 2013).

Legend:
Assay type in all cases: cell-based
[1] = tested on: BT-549; experiment: NCI in vitro DTP human cell line screen, BT-549; conditions: Breast Cancer, 1.00E−5 Molar
Protocol: (§1) Then, a cell toxicity assay of the cancer lines made by National Cancer Institute will be discussed as follows. The cell toxicity assay is performed by choosing ten compounds (existing certification numbers) from the 59 compounds disclosed in the present invention first.

[2] = tested on: NCI-H322M; experiment: NCI in vitro DTP human cell line screen, NCI-H322M; conditions: Non-Small Cell Lung Cancer, 1.00E−5 Molar
Protocol: as §1

[3] = tested on: CAKI-1; experiment: NCI in vitro DTP human cell line screen, CAKI-1; conditions: Renal Cancer, 1.00E−5 Molar
Protocol: as §1

[4] = tested on: SN12C; experiment: NCI in vitro DTP human cell line screen, SN12C; conditions: Renal Cancer, 1.00E−5 Molar
Protocol: as §1

[5] = tested on: MDA-MB-468; experiment: NCI in vitro DTP human cell line screen, MDA-MB-468; conditions: Breast Cancer, 1.00E−5 Molar
Protocol: as §1

[6] = tested on: HT29; experiment: NCI in vitro DTP human cell line screen, HT29; conditions: Colon Cancer, 1.00E−5 Molar
Protocol: as §1

[7] = tested on: NCI-H23; experiment: NCI in vitro DTP human cell line screen, NCI-H23; conditions: Non-Small Cell Lung Cancer, 1.00E−5 Molar
Protocol: as §1

[8] = tested on: MALME-3M; experiment: NCI in vitro DTP human cell line screen, MALME-3M; conditions: Melanoma, 1.00E−5 Molar
Protocol: as §1

[9] = MTT assay, HEL299 fibroblast; conditions: human
Text: Please refer to FIG. 4C, various cell viabilities of the HEL299 cell lines can be obtained through the MTT assay while the compounds No. 1˜30 are used to treat HEL299 cell lines, wherein HEL299 cell lines are fibroblast.

[10] = tested on: COLO 205; experiment: NCI in vitro DTP human cell line screen, COLO 205; conditions: Colon Cancer, 1.00E−5 Molar
Protocol: as §1

[11] = tested on: HCC-2998; experiment: NCI in vitro DTP human cell line screen, HCC-2998; conditions: Colon Cancer, 1.00E−5 Molar
Protocol: as §1

[12] = tested on: KM12; experiment: NCI in vitro DTP human cell line screen, KM12; conditions: Colon Cancer, 1.00E−5 Molar
Protocol: as §1

[13] = tested on: UO-31; experiment: NCI in vitro DTP human cell line screen, UO-31; conditions: Renal Cancer, 1.00E−5 Molar
Protocol: as §1

[14] = tested on: LOX IMVI; experiment: NCI in vitro DTP human cell line screen, LOX IMVI; conditions: Melanoma, 1.00E−5 Molar
Protocol: as §1

[15] = tested on: SK-OV-3; experiment: NCI in vitro DTP human cell line screen, SK-OV-3; conditions: Ovarian Cancer, 1.00E−5 Molar
Protocol: as §1

[16] = tested on: MCF7; experiment: NCI in vitro DTP human cell line screen, MCF7; conditions: Breast Cancer, 1.00E−5 Molar
Protocol: as §1

[17] = tested on: T-47D; experiment: NCI in vitro DTP human cell line screen, T-47D; conditions: Breast Cancer, 1.00E−5 Molar
Protocol: as §1

[18] = tested on: SF-295; experiment: NCI in vitro DTP human cell line screen, SF-295; conditions: CNS Cancer, 1.00E−5 Molar
Protocol: as §1

[19] = tested on: UACC-62; experiment: NCI in vitro DTP human cell line screen, UACC-62; conditions: Melanoma, 1.00E−5 Molar
Protocol: as §1

[20] = tested on: MOLT-4; experiment: NCI in vitro DTP human cell line screen, MOLT-4; conditions: Leukemia, 1.00E−5 Molar
Protocol: as §1

[21] = tested on: TK-10; experiment: NCI in vitro DTP human cell line screen, TK-10; conditions: Renal Cancer, 1.00E−5 Molar
Protocol: as §1

[22] = tested on: NCI/ADR-RES; experiment: NCI in vitro DTP human cell line screen, NCI/ADR-RES; conditions: Ovarian Cancer, 1.00E−5 Molar
Protocol: as §1

[23] = tested on: A control cell lines; experiment: MTT assay, A control cell lines (lung cancer cell)
Text: Please refer to Table 1 and FIGS. 4A-4C. According to a MTT assay (Table 1), various cell viabilities of the A control cell lines can be obtained and illustrated in FIG. 4A while the compounds No. 2˜30 are used to treat A control cell lines, wherein A control cell lines are lung cancer cell.

[24] = tested on: U251; experiment: NCI in vitro DTP human cell line screen, U251; conditions: CNS Cancer, 1.00E−5 Molar
Protocol: as §1

[25] = tested on: SW-620; experiment: NCI in vitro DTP human cell line screen, SW-620; conditions: Colon Cancer, 1.00E−5 Molar
Protocol: as §1

[26] = tested on: HCT-116; experiment: NCI in vitro DTP human cell line screen, HCT-116; conditions: Colon Cancer, 1.00E−5 Molar
Protocol: as §1

[27] = tested on: HL-60(TB); experiment: NCI in vitro DTP human cell line screen, HL-60(TB); conditions: Leukemia, 1.00E−5 Molar
Protocol: as §1

[28] = tested on: SF-268; experiment: NCI in vitro DTP human cell line screen, SF-268; conditions: CNS Cancer, 1.00E−5 Molar
Protocol: as §1

[29] = tested on: HS 578-T; experiment: NCI in vitro DTP human cell line screen, HS 578-T; conditions: Breast Cancer, 1.00E−5 Molar
Protocol: as §1

Cc1cc(C)cc(Sc2ccc3c(=O)c4ccccc4sc3c2Cl)c1 [No. 14, 4-Chloro-3-(3,5-dimethylphenylthio)-9H-thioxanthen-9-one]
Growth Percent [1]: 105.50% | Growth Percent [2]: 116.93% | Growth Percent [3]: 90.10% | Growth Percent [4]: 101.79% | Growth Percent [5]: 110.63% | Growth Percent [6]: 95.28% | Growth Percent [7]: 92.54% | Growth Percent [8]: 102.39% | viability [9]: 104 ± 9.21% | Growth Percent [10]: 108.10% | Growth Percent [11]: 101.80% | Growth Percent [12]: 109.61% | Growth Percent [13]: 87.22% | Growth Percent [14]: 96.06% | Growth Percent [15]: 103.14% | Growth Percent [16]: 94.94% | Growth Percent [17]: 100.87% | Growth Percent [18]: 116.45% | Growth Percent [19]: 96.19% | Growth Percent [20]: 99.59% | Growth Percent [21]: 103.30% | Growth Percent [22]: 101.13% | cell viabilities of A control cell lines (MTT assay) [23]: 112 ± 8.03% | Growth Percent [24]: 95.50% | Growth Percent [25]: 104.39% | Growth Percent [26]: 93.28% | Growth Percent [27]: 99.82% | Growth Percent [28]: 104.92% | Growth Percent [29]: 103.67%
